From US20160067314A1, “COMPOSITIONS AND METHODS FOR INHIBITING CHEMORESISTANCE IN CANCER AND IMPROVING RESPONSE TO THERAPY” (UNIVERSITY OF VIRGINIA PATENT FOUNDATION, priority 2013, published 2016)

Columns and labels:
A208 cells = assay: Ara-C concentration killing ~85% of adherent cells (preliminary experiments); format: cell-based, human; conditions: Ara-C for 3 days
From the text: (§1) FIG. 1. ALCAM correlates with detachment-induced therapy resistance. Relative ALCAM expression levels in melanoma measured by (A) microarray analysis and (B) RT-PCR. Expression levels are normalized to M21. Values are means±SE. (C) Relative ALCAM expression versus cell survival in additional melanoma cell lines. The graph represents detachment-induced resistance (“delta”) as the fold difference in survival between suspended versus adherent cells. Survival of adherent and suspended cells after treatment with chemotherapy (Ara-C) for 3 days was determined by replating on fibronectin. Concentrations of Ara-C were chosen for each cell line to kill ˜85% of adherent cells as determined in preliminary experiments. Concentrations were: A208 cells, 0.5 μM; A375.S2 cells, 0.3 μM; RPMI7951 cells, 5 μM, FM3: 10 μM). (D) Delta was plotted against ALCAM message level determined by RT-PCR. Values are means±SE, n>3.
(§2) The human melanoma cell lines; M21, VMM12, VMM15, VMM1, VMM5A, VMM18 were cultured as described [Molhoek, 2008; Schwartz, 2008]. RPMI7951, A208, and A375.S2 were cultured in DMEM/F12 medium supplemented with 5% heat inactivated fetal bovine serum, 15 mM HEPES and penicillin-streptomycin. FM3 cells were grown in DMEM supplemented with 10% fetal bovine serum and penicillin-streptomycin. Cell survival assays and colony assay were performed as described before [Schwartz, 2008].

A375.S2 cells = assay: as above; format: cell-based, human; conditions: Ara-C for 3 days
From the text: as §1, §2

RPMI7951 cells = assay: as above; format: cell-based, human; conditions: Ara-C for 3 days
From the text: as §1, §2

FM3 = assay: as above; format: cell-based, human; conditions: Ara-C for 3 days
From the text: as §1, §2

subcutaneous M21 tumors [1] = assay: Mouse tumor growth, subcutaneous M21 tumors, AZN-L50 and/or cisplatin; format: in vivo; conditions: SCID mice, s.c. M21 tumors, i.p., two treatments ~1 week apart; cisplatin 8 then 3.5 mg/kg, AZN-L50 100 μg/mouse
Experimental: (A) Mice with palpable subcutaneous tumors were treated with cisplatin alone (CD), AZN-L50 (AZN) alone, or CD plus AZN-L50 (AZN+CD). Mice received 2 treatments 1 week apart. Tumor volume was then followed. Values are means±SE; n=8-11 mice.
Tumor generation and measurement was done as described [Schwartz, 2008]. Briefly male SCID mice (Charles River) were injected s.c. with 100,000 M21 cells. When tumors were first palpable, mice were injected I.P with cisplatin (8 mg/kg: first week and 3.5 mg/kg: second week), AZN-L50 (100 μg/mouse) or both for 2 consecutive weeks. The tumor volumes were recorded weekly.
All statistical analyses were done as described [Schwartz, 2008]. Briefly repeated measures models were used to compare tumor growth in control, cisplatin alone, AZN-L50 alone and cisplatin+AZN-L50 groups. These models account for the correlations among measurements taken from the same animal over time. We used linear models for the log-transformed tumor growth and the assumption that the correlation between measurements decreases with the amount of time between the measurements. F-tests based on contrasts were used to make specific comparisons between groups. All analyses were carried out in SAS 9.2 and GAUSS 10.0.

subcutaneous M21 tumors [2] = assay: Mouse tumor growth, subcutaneous M21 tumors, FN-COMP and/or cisplatin; format: in vivo; conditions: SCID mice; for Tumor growth / tumor size: s.c. M21 tumors, i.p., three treatments ~1 week apart, cisplatin 8 then 3.5 mg/kg, FN-COMP 500 μg/mouse
Experimental: (§3) FIG. 4, Example 2—FN-COMP in chemotherapy in vivo. (A) SCID mice were injected with 500 μg of FN-COMP. At the indicated times, plasma was analyzed by western blotting for fibronectin (FN). (B) Mice with palpable subcutaneous tumors were treated with cisplatin (CD), FN-COMP (FNC) alone, or CD plus FNC. Mice received 3 successive treatments 1 week apart. Tumor volumes were then followed. Values are means±SE, n=10-15 mice. For CD vs. CD+FNC: *P<0.0031. The error bars are asymmetric because the analysis was done in the log-scale, and then converted back to the original scale. Qualitatively similar results were obtained in 2 independent experiments.
(§4) Tumor generation in 6-8 wk old male SCID mice (Charles River Laboratories) and tumor measurement were done as described. When tumors were first palpable, mice were injected intraperitoneally (i.p.) with cisplatin (8 mg/kg: first week and 3.5 mg/kg: second and third weeks), FN-COMP (500 μg/mouse) or both for 3 consecutive weeks. The tumor volumes were recorded weekly. To assay levels in the blood, SCID mice with no tumors were injected intraperitoneally with FN-COMP (500 μg/mouse). Blood was collected at 0, 3, 6, or 24 h post injection. Plasma was subjected to Western blotting with the indicated antibodies. All animal procedures were done according to our institutional Animal Care and Use Committee guidelines.
Statistical analyses were done as described. Briefly, repeated measures models were used to compare tumor growth in control, cisplatin alone, FN-COMP alone and cisplatin+FN-COMP groups. These models account for the correlations among measurements taken from the same animal over time. We used linear models for the log-transformed tumor growth and the assumption that the correlation between measurements decreases with the amount of time between the measurements. F-tests based on contrasts were used to make specific comparisons between groups. All analyses were carried out in SAS 9.2 and GAUSS 10.0.

M21 melanoma cells [3] = assay: Short term survival assay after chemotherapy, adherent or suspended cells; format: cell-based, human; conditions: M21, siRNA transfected, 10 μM Ara-C, 3 days
Experimental: (§5) FIG. 2. ALCAM mediates detachment-induced therapy resistance. (A) ALCAM expression by RT-PCR in M21 melanoma cells after transfection with indicated siRNAs. Values are means±SE. (B) Proliferation of M21 cells expressing either ALCAM or control siRNA. 5×10^5 cells were plated and after 72 h counted. Values are means±SD, (C) Short term survival assays—cells transfected with the indicated siRNAs were treated with chemotherapy (M21:10 μM Ara-C; VMM12:10 μM cisplatin) while adherent (Ad) or suspended (Sus). Cell survival was assayed after 3 days. Values are means±SE, n>3. (D) Adherent or suspended M21 cells were treated with 10 μM Ara-C, then washed and re-plated, and colonies counted after 10 days. Values are means±SD, n=3. **P<0.01, *P<0.05
(§6) We next asked whether ALCAM might play a causal role in chemoresistance induced by loss of integrin-mediated cell adhesion. We therefore designed and tested several siRNA sequences. […] We next examined chemosensitivity in adherent and suspended M21 and VMM12 melanoma lines. Cells transfected with two distinct ALCAM siRNAs (#10 or #11), or control siRNA, were treated with chemotherapy for 3 days, then survival assayed by re-plating on fibronectin. […] Control siRNA had no effect in either condition.
(§7) ALCAM can mediate homophilic adhesion, as well as heterophilic adhesion to CD6, both of which are blocked by a monoclonal antibody, AZN-L50 (van Kempen J Biol Chem. 2001; 276:25783-90; Zimmerman Blood. 2006; 107:3212-20). […] M21 and VMM12 cells were subject to chemotherapy for 72 h while adherent or suspended, in the presence or absence of AZN-L50. Survival was then assayed as before.
as §2

VMM12 melanoma cells [4] = assay: as above; format: cell-based, human; conditions: VMM12, siRNA transfected, 10 μM cisplatin, 3 days
Experimental: as §5, §6, §7, §2

[5] = FN-COMP levels in blood after intraperitoneal injection, plasma Western blot for fibronectin; format: in vivo; conditions: SCID mice, 500 μg/mouse i.p.
Experimental: as §3, §4

M21 melanoma cells [6] = assay: Cell survival of non-adherent cells after FN-COMP and X-irradiation; format: cell-based, human; conditions: M21 suspended, FN-COMP 40 μg/ml 30-45 min, then 10 Gy X-irradiation, survival 72 h later
Experimental: (§8) (A) M21, (B) VMM12 or (C) VMM18 melanoma cells were left adherent (Ad) or detached and kept in suspension (Sus) for 1 h. Suspended cells were then treated with of FN-COMP (FNC) at 40 μg/ml for 30-45 min followed by treatment with either 10 Gy X-irradiation (A) or Ara-C at 10 μM (B and C). Cell survival was assayed 72 h later. Values are means } SE, n=3. *P<0.05.
(§9) The human melanoma cell lines; M21, VMM12, VMM18 were cultured as described. Cell survival assays and colony assay were performed as described. Cells were irradiated using an X-ray irradiator at a dose rate of 3.3 Gy/min.

VMM12 melanoma cells [7] = assay: Cell survival of non-adherent cells after FN-COMP and Ara-C; format: cell-based, human; conditions: VMM12 suspended, FN-COMP 40 μg/ml 30-45 min, then Ara-C 10 μM, survival 72 h later
Experimental: as §8, §9

VMM18 melanoma cells = assay: as above; format: cell-based, human; conditions: VMM18 suspended, FN-COMP 40 μg/ml 30-45 min, then Ara-C 10 μM, survival 72 h later
Experimental: as §8, §9

integrin signaling = assay: Tyrosine phosphorylation in suspended cells, Western blot with pY20; format: cell-based; conditions: suspended M21 melanoma or mouse 3T3 cells, FN-COMP 40 μg/ml
Experimental: FIG. 2, Example 2—FN-COMP stimulates signaling in vitro. Either M21 melanoma or mouse 3T3 cells were left adherent (Ad) or detached and kept in suspension (sus) for 1 h. Suspended cells were either treated with of FN-COMP at 40 μg/ml for indicated times or left untreated. Lysates were analyzed by Western blotting using antiphosphotyrosine antibody pY20. Tubulin was used as a loading control. n=2.
Cells were lysed as previously described. Proteins were separated on SDS-PAGE gels, transferred, blocked, and probed with the indicated primary antibodies. Blots were washed, incubated with secondary antibodies and developed using ECL reagents (Pierce) and film (Kodak). FN-COMP under reducing and non-reducing condition was loaded on SDSPAGE gels and was subjected electrophoresis. Gels were stained with Coomassie Blue to visualize the bands.

human melanoma = conditions: mouse xenografts of human melanoma, previous report [7]; cited from earlier work
[8] = test system: focal adhesion kinase and p130cas; conditions: observed at nM concentrations; cited from earlier work

Compound: Nc1ccn([C@@H]2O[C@H](CO)[C@@H](O)[C@@H]2O)c(=O)n1 [Ara-C, 1-β-D-arabinofuranosylcytosine]
- Concentration of Ara-C chosen to kill ˜85% of adherent cells (A208 cells): 0.5 µM
- Concentration of Ara-C chosen to kill ˜85% of adherent cells (A375.S2 cells): 0.3 µM
- Concentration of Ara-C chosen to kill ˜85% of adherent cells (RPMI7951 cells): 5 µM
- Concentration of Ara-C chosen to kill ˜85% of adherent cells (FM3): 10 µM

Compound: N.N.[Cl][Pt][Cl] [cisplatin, cis-Dichlorodiamine platinum(II)]
- Tumor growth / tumor size (subcutaneous M21 tumors [1]): Neither AZN-L50 alone nor cisplatin alone had significant effects on tumor growth
- Tumor growth / tumor size (subcutaneous M21 tumors [2]): Neither FN-COMP alone nor cisplatin alone had significant effects on tumor growth

Compound: ALCAM siRNA #10: siRNA that targets ALCAM, 5-GGAAACUAUGUCUGCGAAA-3 (SEQ ID NO:5) (listed as RNA, chemistry not given here)
- Cell survival, adherent cells (M21 melanoma cells [3]): no effect
- Cell survival, suspended cells (M21 melanoma cells [3]): drastically reduced cell survival
- Cell survival, adherent cells (VMM12 melanoma cells [4]): no effect
- Cell survival, suspended cells (VMM12 melanoma cells [4]): drastically reduced cell survival

Compound: ALCAM siRNA #11: siRNA that targets ALCAM, 5′-CACCTGCTCGGTGACATATTA-3′ (SEQ ID NO:4), described before [Hong, 2010] (other strand not cited, further chemistry not given here)
- Cell survival, adherent cells (M21 melanoma cells [3]): no effect
- Cell survival, suspended cells (M21 melanoma cells [3]): drastically reduced cell survival
- Cell survival, adherent cells (VMM12 melanoma cells [4]): no effect
- Cell survival, suspended cells (VMM12 melanoma cells [4]): drastically reduced cell survival

Compound: FN-COMP: homo-pentameric construct of fibronectin peptides (type III repeats 5-11) linked by the assembly domain of COMP (amino acid residues 27-84)
- Side effects in the mice (subcutaneous M21 tumors [2]; 3 weekly i.p. treatments): not observed
- Tumor growth / tumor size (subcutaneous M21 tumors [2]): Neither FN-COMP alone nor cisplatin alone had significant effects on tumor growth
- Stability in blood after injection [5]: at least 24 h
- Time of appearance in the blood [5]: ≤ 3 h
- Response to therapy (radiosensitivity) of non-adherent cells (M21 melanoma cells [6]): improved chemo and radiosensitivity
- Response to therapy (chemosensitivity) of non-adherent cells (VMM12 melanoma cells [7]): improved chemo and radiosensitivity
- Response to therapy (chemosensitivity) of non-adherent cells (VMM18 melanoma cells): no effect
- Tyrosine phosphorylation (characteristic of integrin signaling) (integrin signaling): increased tyrosine phosphorylation of bands around 60, 75 and 125 kD

Compound: contortrostatin
- Therapeutic responses when combined with chemotherapy (human melanoma): improved therapeutic responses
- Tyrosine phosphorylation of integrin targets [8]: strongly increased
